Assay results taken from patent US20070082339A1, “Methods and compositions for screening for HDAC inhibitory activity” (priority 2005, published 2007).

Test system: A549 cells
Test: Microarray analysis of gene expression after LAQ824 treatment
Format: cell-based, human
Details: for Fold change AMP-activated protein kinase family member 5 (ARK5) 204589_at / Fold change ANP32B acidic (leucine-rich) nuclear phosphoprotein 32 family, member B (SSP29) 201305_x_at / Fold change AVEN apoptosis, caspase activation inhibitor (Aven) 219366_at / Fold change B-cell CLL/lymphoma 3 (BCL3) 204908_s_at / Fold change BAI1-associated protein 2 (BAP2, IRSp53) 205293_x_at / Fold change BAI1-associated protein 3 (BAP3, KIAA0734) 204874_x_at / Fold change BAI1-associated protein 3 (BAP3, KIAA0734) 216356_x_at / Fold change BCL2-associated athanogene 2 (BAG-2) 209406_at / Fold change BCL2-interacting killer (apoptosis-inducing) (BP4, NBK, BIP1) 205780_at / Fold change BCL2-like 1 (BCL2L1) 206665_s_at / Fold change BH3 interacting domain death agonist (BID) 204493_at / Fold change Cyclin A2 (CCN1, CCNA) 203418_at / Fold change Cyclin-dependent kinase inhibitor 2D (p19, inhibits CDK4) (INK4D) 210240_s_at / Fold change DEC1-anti apoptosis (BHLHB2) 201169_s_at / Fold change Diphtheria toxin receptor (heparin-binding epidermal growth factor-like growth factor) (DTR) 203821_at / Fold change Early growth response 1 (TIS8, NGFI-A, KROX-24, ZIF-268) 201694_s_at / Fold change GMCL germ cell-less homolog (Drosophila) (GMCL) 218458_at / Fold change Katanin p80 (WD40-containing) subunit B 1 (KAT) 203163_at / Fold change NACHT, leucine rich repeat and PYD containing 1 (PP1044) 218380_at / Fold change Paternally expressed Gene 10 (PEG10) 212092_at / Fold change Paternally expressed Gene 10 (PEG10) 212094_at / Fold change Protein regulator of cytokinesis 1 (PRC1) 218009_s_at / Fold change SKAP55 protein 216899_s_at / Fold change Secreted frizzled-related protein 1 (FRP, SARP2) 202036_s_at / Fold change Secreted frizzled-related protein 1 (FRP, SARP2) 202037_s_at / Fold change Serine/threonine kinase 6 (AIK) 208079_s_at / Fold change Tribbles homolog 3a (TRIB3) 218145_at / Fold change Tumor necrosis factor receptor superfamily, member 6 (TNFRSF6) 215719_x_at / Fold change Tumor necrosis factor receptor superfamily, member 6 (TNFRSF6) 216252_x_at / Fold change Tumor protein p53 (Li-Fraumeni syndrome) 201746_at / Fold change Tumor protein p53 (Li-Fraumeni syndrome) 211300_s_at / Fold change member of the N-myc downregulated gene family (NDRG4) 209159_s_at: A549, 500 nM vs DMSO
Method: The human lung carcinoma cell line A549 is obtained from the American Type Culture Collection (Rockville, Md.) and cultured in F-12K (ATCC, Manassas, Va.), 10% fetal bovine serum, and 1% penicillin/streptomycin (Life Technologies, Inc.). LAQ824 (Novartis) is added directly to the cell medium at a final concentration of 500 nM. Microarray analysis is performed essentially as described previously (Welsh, 2001). Total RNA is prepared from A549 cells treated with LAQ 824 or DMSO for 0.5, 2, 6, 12 and 24 h. Labelled cDNA is prepared and hybridized to Affymetrix U133 oligonucleotide GeneChip® (Affymetrix, Santa Clara, Calif.). The arrays were scanned on an Affymetrix GeneArray scanner and analyzed with GENECHIP Microarray Analysis Suite 5.0 software (MAS5) (Affymetrix). The data (raw data including image files and scanner files (Cel. Files) as well as the MAS5 normalized data are stored in the DEMON Database. The MAS5 normalized data are exported from the database and analyzed using GeneSpring software version 6.1. The genes are filtered for a minimal expression of 100 in at least one condition (the condition being defined as the average the value for the 3 samples corresponding to a given time point and a treatement) The gene expression changes (fold change) are calculated for each time point (t) as follow: (Gene expression level LAQ824 treated—(Average of the 3 replicates) Time (t))/(Gene expression level DMSO treated—(Average of the 3 replicates) Time (t)).
Any fold change <0 indicated a down regulation or reduction of the mRNA production, any fold change >0 indicated an up regulation or increase of mRNA production. Genes are filtered according to the fold change and the statistical significance of the changes (1-way-ANOVA test p<0.05)).

O=C(/C=C/c1ccc(CN(CCO)CCc2c[nH]c3ccccc23)cc1)NO [LAQ824, N-Hydroxy-3-[4-[[(2-hydroxyethyl)[2-(1H-indol-3-yl)-ethyl]-amino]methyl]phenyl]-2E-2-propenamide]
Fold change AMP-activated protein kinase family member 5 (ARK5) 204589_at (12 h): −4.6 fold | Fold change ANP32B acidic (leucine-rich) nuclear phosphoprotein 32 family, member B (SSP29) 201305_x_at (12 h): −5.1 fold | Fold change AVEN apoptosis, caspase activation inhibitor (Aven) 219366_at (12 h): −2.6 fold | Fold change B-cell CLL/lymphoma 3 (BCL3) 204908_s_at (12 h): −5.5 fold | Fold change BAI1-associated protein 2 (BAP2, IRSp53) 205293_x_at (12 h): 6.8 fold | Fold change BAI1-associated protein 3 (BAP3, KIAA0734) 204874_x_at (12 h): 15.9 fold | Fold change BAI1-associated protein 3 (BAP3, KIAA0734) 216356_x_at (12 h): 27.9 fold | Fold change BCL2-associated athanogene 2 (BAG-2) 209406_at (12 h): −3.3 fold | Fold change BCL2-interacting killer (apoptosis-inducing) (BP4, NBK, BIP1) 205780_at (12 h): 12.0 fold | Fold change BCL2-like 1 (BCL2L1) 206665_s_at (12 h): −7.6 fold | Fold change BH3 interacting domain death agonist (BID) 204493_at (12 h): −3.6 fold | Fold change Cyclin A2 (CCN1, CCNA) 203418_at (12 h): −2.3 fold | Fold change Cyclin-dependent kinase inhibitor 2D (p19, inhibits CDK4) (INK4D) 210240_s_at (12 h): 4.8 fold | Fold change DEC1-anti apoptosis (BHLHB2) 201169_s_at (12 h): −4.8 fold | Fold change Diphtheria toxin receptor (heparin-binding epidermal growth factor-like growth factor) (DTR) 203821_at (12 h): 13.1 fold | Fold change Early growth response 1 (TIS8, NGFI-A, KROX-24, ZIF-268) 201694_s_at (12 h): 11.2 fold | Fold change GMCL germ cell-less homolog (Drosophila) (GMCL) 218458_at (12 h): 3.8 fold | Fold change Katanin p80 (WD40-containing) subunit B 1 (KAT) 203163_at (12 h): 4.3 fold | Fold change NACHT, leucine rich repeat and PYD containing 1 (PP1044) 218380_at (12 h): 11.3 fold | Fold change Paternally expressed Gene 10 (PEG10) 212092_at (12 h): 3.8 fold | Fold change Paternally expressed Gene 10 (PEG10) 212094_at (12 h): 3.5 fold | Fold change Protein regulator of cytokinesis 1 (PRC1) 218009_s_at (12 h): −2.5 fold | Fold change SKAP55 protein 216899_s_at (12 h): 1.8 fold | Fold change Secreted frizzled-related protein 1 (FRP, SARP2) 202036_s_at (12 h): 3.9 fold | Fold change Secreted frizzled-related protein 1 (FRP, SARP2) 202037_s_at (12 h): 3.9 fold | Fold change Serine/threonine kinase 6 (AIK) 208079_s_at (12 h): −2.4 fold | Fold change Tribbles homolog 3a (TRIB3) 218145_at (12 h): −4.0 fold | Fold change Tumor necrosis factor receptor superfamily, member 6 (TNFRSF6) 215719_x_at (12 h): −6.3 fold | Fold change Tumor necrosis factor receptor superfamily, member 6 (TNFRSF6) 216252_x_at (12 h): −4.9 fold | Fold change Tumor protein p53 (Li-Fraumeni syndrome) 201746_at (12 h): −4.4 fold | Fold change Tumor protein p53 (Li-Fraumeni syndrome) 211300_s_at (12 h): −3.7 fold | Fold change member of the N-myc downregulated gene family (NDRG4) 209159_s_at (12 h): 7.3 fold | Fold change AMP-activated protein kinase family member 5 (ARK5) 204589_at (24 h): −1.9 fold | Fold change ANP32B acidic (leucine-rich) nuclear phosphoprotein 32 family, member B (SSP29) 201305_x_at (24 h): −7.3 fold | Fold change AVEN apoptosis, caspase activation inhibitor (Aven) 219366_at (24 h): −8.2 fold | Fold change B-cell CLL/lymphoma 3 (BCL3) 204908_s_at (24 h): −1.8 fold | Fold change BAI1-associated protein 2 (BAP2, IRSp53) 205293_x_at (24 h): 3.6 fold | Fold change BAI1-associated protein 3 (BAP3, KIAA0734) 204874_x_at (24 h): 10.9 fold | Fold change BAI1-associated protein 3 (BAP3, KIAA0734) 216356_x_at (24 h): 19.2 fold | Fold change BCL2-associated athanogene 2 (BAG-2) 209406_at (24 h): −4.4 fold | Fold change BCL2-interacting killer (apoptosis-inducing) (BP4, NBK, BIP1) 205780_at (24 h): 15.5 fold | Fold change BCL2-like 1 (BCL2L1) 206665_s_at (24 h): −2.0 fold | Fold change BH3 interacting domain death agonist (BID) 204493_at (24 h): −4.6 fold | Fold change Cyclin A2 (CCN1, CCNA) 203418_at (24 h): −13.3 fold | Fold change Cyclin-dependent kinase inhibitor 2D (p19, inhibits CDK4) (INK4D) 210240_s_at (24 h): 2.0 fold | Fold change DEC1-anti apoptosis (BHLHB2) 201169_s_at (24 h): −1.9 fold | Fold change Diphtheria toxin receptor (heparin-binding epidermal growth factor-like growth factor) (DTR) 203821_at (24 h): 3.2 fold | Fold change Early growth response 1 (TIS8, NGFI-A, KROX-24, ZIF-268) 201694_s_at (24 h): 4.6 fold | Fold change GMCL germ cell-less homolog (Drosophila) (GMCL) 218458_at (24 h): 2.3 fold | Fold change Katanin p80 (WD40-containing) subunit B 1 (KAT) 203163_at (24 h): 2.9 fold | Fold change NACHT, leucine rich repeat and PYD containing 1 (PP1044) 218380_at (24 h): 22.7 fold | Fold change Paternally expressed Gene 10 (PEG10) 212092_at (24 h): 7.0 fold | Fold change Paternally expressed Gene 10 (PEG10) 212094_at (24 h): 6.5 fold | Fold change Protein regulator of cytokinesis 1 (PRC1) 218009_s_at (24 h): −5.1 fold | Fold change SKAP55 protein 216899_s_at (24 h): 4.0 fold | Fold change Secreted frizzled-related protein 1 (FRP, SARP2) 202036_s_at (24 h): 4.5 fold | Fold change Secreted frizzled-related protein 1 (FRP, SARP2) 202037_s_at (24 h): 4.4 fold | Fold change Serine/threonine kinase 6 (AIK) 208079_s_at (24 h): −8.3 fold | Fold change Tribbles homolog 3a (TRIB3) 218145_at (24 h): −10.1 fold | Fold change Tumor necrosis factor receptor superfamily, member 6 (TNFRSF6) 215719_x_at (24 h): −4.8 fold | Fold change Tumor necrosis factor receptor superfamily, member 6 (TNFRSF6) 216252_x_at (24 h): −5.6 fold | Fold change Tumor protein p53 (Li-Fraumeni syndrome) 201746_at (24 h): −7.1 fold | Fold change Tumor protein p53 (Li-Fraumeni syndrome) 211300_s_at (24 h): −7.3 fold | Fold change member of the N-myc downregulated gene family (NDRG4) 209159_s_at (24 h): 4.5 fold | NF—Y gene expression in response to LAQ824 treatment (A549 cells, DNA microarray analysis): significantly up-regulated
